From the NIST ThermoML archive (doi:10.1016/j.jct.2007.10.010)
Numbers after ± are expanded uncertainties.

Assay: xn = mol fraction of the nth substance listed
Settings: 101 kPa, Liquid

CCCCCCCC [octane] + Cc1cccc(C)c1
x1 = 1
Settings	mass density [kg/m3]
298.15 K	698.63 ± 0.62
308.15 K	690.43 ± 0.63
318.15 K	682.49 ± 0.64
328.15 K	674.56 ± 0.66

CCCCCCCC [octane] + Cc1ccccc1
mass density [kg/m3]
Settings	298.15 K	308.15 K	318.15 K	328.15 K
x1 = 0.0654	845.89 ± 0.37	836.6 ± 0.38	–	–
x1 = 0.0675	–	–	826.95 ± 0.4	817.77 ± 0.41
x1 = 0.1229	–	–	814.22 ± 0.42	805.12 ± 0.43
x1 = 0.1283	831.23 ± 0.39	822.06 ± 0.41	–	–
x1 = 0.1979	816.17 ± 0.42	807.1 ± 0.43	–	–
x1 = 0.2052	–	–	796.69 ± 0.45	787.73 ± 0.46
x1 = 0.2524	805.13 ± 0.43	796.14 ± 0.45	–	–
x1 = 0.2613	–	–	785.56 ± 0.47	776.68 ± 0.48
x1 = 0.312	793.74 ± 0.45	784.82 ± 0.47	–	–
x1 = 0.3142	–	–	775.67 ± 0.48	766.87 ± 0.5
x1 = 0.3931	779.27 ± 0.48	770.46 ± 0.49	–	–
x1 = 0.398	–	–	761 ± 0.51	752.32 ± 0.52
x1 = 0.4544	769.05 ± 0.5	760.31 ± 0.51	–	–
x1 = 0.4553	–	–	751.61 ± 0.52	743.01 ± 0.54
x1 = 0.5388	–	–	738.82 ± 0.54	730.32 ± 0.56
x1 = 0.5409	755.59 ± 0.52	746.93 ± 0.53	–	–
x1 = 0.6029	746.56 ± 0.53	737.98 ± 0.55	–	–
x1 = 0.6078	–	–	728.94 ± 0.56	720.55 ± 0.57
x1 = 0.6679	–	–	720.81 ± 0.57	712.48 ± 0.59
x1 = 0.6717	737.09 ± 0.55	728.58 ± 0.56	–	–
x1 = 0.7202	730.75 ± 0.56	722.3 ± 0.57	–	–
x1 = 0.7262	–	–	713.32 ± 0.59	705.06 ± 0.6
x1 = 0.7985	–	–	704.51 ± 0.6	696.33 ± 0.62
x1 = 0.8064	720.08 ± 0.58	711.7 ± 0.59	–	–
x1 = 0.863	–	–	697.07 ± 0.62	688.97 ± 0.63
x1 = 0.8727	712.36 ± 0.59	704.05 ± 0.61	–	–
x1 = 0.9143	–	–	691.43 ± 0.63	683.39 ± 0.64
x1 = 0.9312	705.88 ± 0.61	697.62 ± 0.62	–	–
x1 = 1	698.61 ± 0.62	690.44 ± 0.63	682.49 ± 0.64	674.55 ± 0.66
